Source: EP0183271B1, “Lysin derivative and proteinase inhibitor” (Okamoto, Shosuke, priority 1984, dated 1986)
Where a name gives a salt, the structure may show the parent alone. Square brackets hold non-standard residues; d marks the D form. Peptide text beside a SMILES is read from it. * marks the point of attachment. dPhg = N[C@@H](C(=O)O)c1ccccc1; Tos = Cc1ccc(S(=O)(=O)*)cc1

What was measured:
Plasmin [1] = biological target: T1, Plasmin (Homo sapiens, UniProt P00747); assay: biochemical; settings: substrate S-2251
Experimental: (§1) (1) Evaluation of Antiplasmin Activity
(ii) Determination of prevention activity for S-2251 decomposition
An inhibitor sample is dissolved in a 0.05 M Tris-hydrochloric acid buffer solution (pH = 7.4) to make the total volume to 400 µl. To this solution, 50 pl of a 3 mM S-2251 solution is added and the mixture is incubated at a temperature of 37°C for 5 minutes in a constant temperature bath. Then, 50 pl of a 0.2 casein unit/ml human plasmin is added and the mixture is incubated at a temperature of 37°C for 4 minutes. Thereafter, the reaction is stopped by adding 50 µl of 50% acetic acid.
The absorbance of p-nitroaniline formed in the reaction mixture is determined at 405 nm. Thus, the concentration I50 of the inhibitor sample, at which the absorbance is one half (i.e., 1/2) of that obtained in the absence of the inhibitor, is determined.

Plasmin [2] = biological target: T1, Plasmin; assay: biochemical
Experimental: as §1
(i) Determination of prevention activity for fibrin decomposition
0.18 M borate-physiological salt buffer solution (pH = 7.4) to make the total volme to 600 pl. To this buffer solution, 200 µl of a 0.2% bovin fibrinogen, 100 µl of a 0.3 cassein unit/ml human […] solution, and 100 µl of a 50 unit/ml bovine thrombin solution, all dissolved in the above-mentioned buffer, are added at a temperature of 37°C in a constant temperature bath. Then, the dissolution time of the fibrin mass formed above is determined.

Plasmin [3] = biological target: T1, Plasmin; assay: Antiplasmin activity: prevention of fibrinogen decomposition; format: biochemical; settings: Table IV, present compounds, read-out: I50 Fibrinogen
Experimental: as §1
(iii) Determination of prevention activity for fibrinogen
An inhibitor sample is dissolved in a 0.18 M borate-physiological salt buffer solution (pH = 7.4) to make the total volume to 400 µl. To this solution, 500 pl of a 0.4% bovine fibrinogen solution and 100 pl of a 1 casein unit/ml human plasmin solution, all dissolved in the above-mentioned buffer are added at a temperature of 37°C in a constant temperature bath. After the mixture is allowed to stand at a temprature of 37°C for 10 minutes, 3800 µl of the above-mentioned buffer containing (3.2 mM of tranexamic acid and 200 µl of a 50 unit/ml bovine thrombin solution are added to terminate the reaction. The mixture is incubated at a temperature of 37°C for 15 minutes to precipitate the fibrin. The fibrin mass thus precipitated is adhered to or wound around a glass rod and is then washed with water. The amount of the remaining fibrinogen is determined according to a tyrosine coloring method using a phenol reagent (see J. Biol. Chem., 73, 627 (1927). From the amount of the remaining fibrinogen thus determined, the amount of decomposed fibrinogen is calculated. Thus, the concentration 150 of the inhibitor sample, at which the amount of decomposed fibrinogen is one half (i.e., 1/2) of that obtained in the absence of the inhibitor sample, is determined.

bovine thrombin [4] = biological target: T2, bovine thrombin (Bos taurus, UniProt P00735); assay: Antithrombin activity: inhibition of fibrin formation from fibrinogen (coagulation time); format: biochemical; settings: Table III, known compounds of Table II; coagulation time extended twice; *1: 0% Inhibition at the given concentration; read-out: I50 Thrombin Fibrinogen
Experimental: (§2) (2) Evaluation of Antithrombin Activity
(i) Determination of inhibition activity against fibrin formation
An inhibitor sample is dissolved in a 0.18 M borate-physiological salt buffer solution (pH = 7.4) to make the total volume to 500 µl. To this solution, 400 µl of a 0.2% bovine fibrinogen solution and 100 µl of a 4 unit/ ml bovine thrombin solution are added at a temperature of 37°C in a constant temperature bath. Thus, a coagulation time is determined. The inhibitor concentraion I50, at which the coagulation time obtained in the absence of the inhibitor is extended twice, is determined.

bovine trypsin = biological target: T3, bovine trypsin (Bos taurus, UniProt P00760); assay: Antitrypsin activity: inhibition of S-2238 decomposition; format: biochemical; settings: Table III, known compounds of Table II; substrate S-2238; *1: 0% Inhibition at the given concentration; read-out: I50 Trypsin S-2238
T3 sequence (P00760 24-246): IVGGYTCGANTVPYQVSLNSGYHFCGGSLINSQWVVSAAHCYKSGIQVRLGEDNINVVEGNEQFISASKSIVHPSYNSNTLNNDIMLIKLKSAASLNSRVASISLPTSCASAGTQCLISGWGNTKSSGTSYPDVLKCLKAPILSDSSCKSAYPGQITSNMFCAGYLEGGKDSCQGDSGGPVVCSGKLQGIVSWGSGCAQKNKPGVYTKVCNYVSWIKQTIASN
Experimental: (3) Evaluation of Antitrypsin Activity
Determination of inhibition activity against S-2238 decomposition
An inhibitor sample is dissolved in a 0.05 M Tris-imidazole buffer solution (pH = 8.1) and 125 µl of a 1 mM S―2238 solution is added to make the total volume to 1.20 ml. The mixture is incubated at a temperature of 37°C for 5 minutes in a constant temperature bath. To this mixture, 0.05 ml of bovine trypsin is added and the absorbance, at 405 nm, of the p-nitroaniline formed per minute is determined at a temperature of 37°C by using the so-called initial velocity method. Thus, the concentration 15° of the inhibitor sample, at which the absorbance is one half (i.e., 1/2) of that obtained in the absence of the inhibitor, is determined.

human plasma kallikrein = human plasma kallikrein (Homo sapiens, UniProt P03952); assay: Anti-plasma kallikrein activity: prevention of S-2302 decomposition; format: biochemical; settings: Table III, known compounds of Table II; substrate S-2302; *1: 0% Inhibition at the given concentration; read-out: I50 Plasma Kallikrein S-2302
Experimental: (4) Evaluation of Anti-Plasma Kallikrein Activity
Determination of prevention activity for S―2302 decomposition
An inhibitor sample is dissolved in a 0.05 M Tris-hydrochloric acid buffer solution (pH = 7.8) to make the total volume to 400 pl. To this solution, 50 pl of a 2 mM S-2302 solution is added and the mixture is incubated at a temperature of 37°C for 5 minutes in a constant temperature bath. Then, 50 µl of a 0.12 unit/ ml human plasma kallikrein is added and the mixture is incubated at a temperature of 37°C for 5 minutes. Thereafter, 50 pl of 50% acetic acid is added to terminate the reaction. The absorbance of the p-nitroaniline formed in the reaction mixture is measured at 405 nm. Thus, the concentration 150 of the inhibitor sample, at which the absorbance is one half (i.e., 1/2) of that obtained in the absence of the inhibitor sample, is determined.

bovine thrombin [5] = biological target: T2, bovine thrombin; assay: Antithrombin activity: prevention of S-2238 decomposition; format: biochemical; settings: Table III, known compounds of Table II; substrate S-2238; *1: 0% Inhibition at the given concentration; read-out: I50 Thrombin S-2238
Experimental: as §2
(ii) Determination of prevention activity for S-2238 decomposition
An inhibitor sample is dissolved in a 0.05 M Tris-hydrochloric acid buffer solution (pH = 8.3) to make a total volume to 400 µl. To this solution, 50 µl of a […] S-2238 solution is added and the mixture is incubated at a temperature of 37°C for 5 minutes in a constant temperature bath. Then, 50 µl of a 0.2 unit/ml bovine thrombin solution is added thereto and the absorbance, at 405 nm, of the p-nitroaniline formed per minute is determined at a temperature of 37°C by using the so-called initial velocity method. Thus, the concentration 150 of the inhibitor sample at which the absorbance is one half (i.e., 1/2) of that obtained in the absence of the inhibitor, is determined.

human urokinase = human urokinase (Homo sapiens, UniProt P00749); assay: Antiurokinase activity: prevention of S-2444 decomposition; format: biochemical; settings: Table III, known compounds of Table II; substrate S-2444; *1: 0% Inhibition at the given concentration; read-out: I50 Urokinase S-2444
Experimental: (5) Evaluation of Antiurokinase Activity
Determination of prevention activity for S-2444 decomposition
An inhibitor sample is dissolved in a 0.05 M Tris-hydrochloric acid buffer solution (pH = 8.8) to make the total volume to 400 pl. To this solution, 50 pl of a 1 mM S―2444 solution is added and the mixture is incubated at a temperature of 37°C for 5 minutes in a constant temperature bath. Then, 50 µl of a 500 unit/ ml human urokinase is added and the mixture is incubated at a temperature of 37°C for 5 minutes. Thereafter, 50 pl of 50% acetic acid is added to terminate the reaction. The absorbance of the p-nitroaniline formed in the reaction mixture is measured at 405 nm. Thus, the concentration 150 of the inhibitor sample, at which the absorbance is one half (i.e., 1/2) of that obtained in the absence of the inhibitor, is determined.

[6] = Table III, known compounds of Table II, *1: 0% Inhibition at the given concentration, read-out: I50 Plasmin S-2251
[7] = Table IV, present compounds, plasmin, read-out: I50 S-2251
[8] = Table IV, present compounds, plasmin, fibrin decomposition, read-out: I50 Fibrin
[9] = Table III, known compounds of Table II, fibrin dissolution time extended twice, *1: 0% Inhibition, *2: 19% Inhibition at the concentration, read-out: I50 Plasmin Fibrin

Chain of human plasma kallikrein (P03952 391-638 limits assumed): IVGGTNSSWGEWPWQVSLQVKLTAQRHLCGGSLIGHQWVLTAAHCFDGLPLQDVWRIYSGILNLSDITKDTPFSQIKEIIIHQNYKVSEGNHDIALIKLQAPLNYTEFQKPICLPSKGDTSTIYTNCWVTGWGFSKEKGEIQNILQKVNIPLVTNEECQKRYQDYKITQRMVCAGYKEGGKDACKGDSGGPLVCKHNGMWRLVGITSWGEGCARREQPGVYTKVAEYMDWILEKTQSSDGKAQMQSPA
Chain of human plasma kallikrein (P03952 20-390 partner limits assumed): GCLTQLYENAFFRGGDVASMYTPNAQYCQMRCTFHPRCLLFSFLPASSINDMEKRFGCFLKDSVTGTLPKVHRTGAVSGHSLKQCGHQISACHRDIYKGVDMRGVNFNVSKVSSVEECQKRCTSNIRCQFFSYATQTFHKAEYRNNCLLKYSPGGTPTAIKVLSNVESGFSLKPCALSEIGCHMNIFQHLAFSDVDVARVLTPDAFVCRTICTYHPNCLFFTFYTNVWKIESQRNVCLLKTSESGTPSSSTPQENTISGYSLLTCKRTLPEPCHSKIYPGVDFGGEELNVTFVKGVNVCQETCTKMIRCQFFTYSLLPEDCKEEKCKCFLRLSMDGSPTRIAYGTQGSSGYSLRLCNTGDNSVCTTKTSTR
T1 sequence (P00747 581-810 limits assumed): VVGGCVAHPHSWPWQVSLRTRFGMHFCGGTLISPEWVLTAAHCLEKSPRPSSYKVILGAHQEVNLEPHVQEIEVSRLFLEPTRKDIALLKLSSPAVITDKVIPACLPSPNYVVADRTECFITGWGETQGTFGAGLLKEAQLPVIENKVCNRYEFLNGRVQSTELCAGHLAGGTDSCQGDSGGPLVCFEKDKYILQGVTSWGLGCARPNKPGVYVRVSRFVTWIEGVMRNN
T1 sequence (P00747 97-580 partner limits assumed): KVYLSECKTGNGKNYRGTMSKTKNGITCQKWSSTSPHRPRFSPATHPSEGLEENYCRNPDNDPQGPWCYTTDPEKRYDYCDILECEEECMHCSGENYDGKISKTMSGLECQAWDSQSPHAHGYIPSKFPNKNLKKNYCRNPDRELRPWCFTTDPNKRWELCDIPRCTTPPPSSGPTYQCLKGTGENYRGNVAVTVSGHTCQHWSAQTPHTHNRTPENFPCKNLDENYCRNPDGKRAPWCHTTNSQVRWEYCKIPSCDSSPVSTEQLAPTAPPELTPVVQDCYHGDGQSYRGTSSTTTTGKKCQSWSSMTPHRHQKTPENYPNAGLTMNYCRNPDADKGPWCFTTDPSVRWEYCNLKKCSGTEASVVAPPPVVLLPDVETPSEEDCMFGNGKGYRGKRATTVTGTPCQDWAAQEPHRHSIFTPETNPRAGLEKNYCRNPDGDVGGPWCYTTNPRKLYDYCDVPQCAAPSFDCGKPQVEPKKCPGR

| Compound | IC50 (Plasmin [1]; [7]) [µM] | IC50 (Plasmin [2]; [8]) [µM] | also measured |
| --- | --- | --- | --- |
| Cc1ccc(S(=O)(=O)N[C@@H](CCCCN)C(=O)Nc2ccc([N+](=O)[O-])cc2)cc1 [Compound No. 3, N^2-(p-toluenesulfonyl)-L-lysine p-nitroanilide hydrochloride] | 700 | 780 | IC50 (Plasmin [1]; [6]): 50000 µM; IC50 (Plasmin [3]): 900 µM |
| NCCCCCC(=O)N[C@@H](CCCCN)C(=O)O [Compound No. 7] | 350 | 300 | IC50 (Plasmin [1]; [6]): > 1000 µM; IC50 (bovine thrombin [4]): > 1000 µM; IC50 (Plasmin [2]; [9]): > 1000 µM; IC50 (bovine trypsin): > 200 µM; IC50 (human plasma kallikrein): > 1000 µM; IC50 (bovine thrombin [5]): > 1000 µM; IC50 (human urokinase): > 1000 µM |
| NCCCC[C@H](NC(=O)c1ccccc1)C(N)=O [Compound No. 8] | 250 | 140 | IC50 (Plasmin [1]; [6]): > 1000 µM; IC50 (bovine thrombin [4]): > 1000 µM; IC50 (Plasmin [2]; [9]): > 1000 µM; IC50 (bovine trypsin): > 300 µM; IC50 (human plasma kallikrein): > 1000 µM; IC50 (bovine thrombin [5]): > 1000 µM; IC50 (human urokinase): > 1000 µM |
| NCCCC[C@H](NS(=O)(=O)c1cccc2ccccc12)C(=O)Nc1ccc([N+](=O)[O-])cc1 [Compound No. 10] | 1700 | 310 |  |
| CCOC(=O)c1cc(NC(=O)[C@H](CCCCN)NS(=O)(=O)c2cccc3ccccc23)cc(C(=O)OCC)c1 [Compound No. 11] | 390 | 75 | IC50 (Plasmin [3]): 80 µM |
| NCCCC[C@H](NS(=O)(=O)c1ccccc1)C(N)=O [compound 4] |  |  | IC50 (Plasmin [1]; [6]): > 1000 µM; IC50 (bovine thrombin [4]): > 1000 µM; IC50 (Plasmin [2]; [9]): > 1000 µM; IC50 (bovine trypsin): > 150 µM; IC50 (human plasma kallikrein): > 1000 µM; IC50 (bovine thrombin [5]): > 1000 µM; IC50 (human urokinase): > 1000 µM |
| Cc1ccc(S(=O)(=O)N[C@@H](CCCCN)C(=O)O)cc1 [compound 5] |  |  | IC50 (Plasmin [1]; [6]): 1400 µM; IC50 (Plasmin [2]; [9]): 1000 µM |
| Cc1ccc(S(=O)(=O)N[C@@H](CCCCN)C(=O)Nc2cccc(Cl)c2)cc1 [compound 18] | 600 | 350 |  |
| Cc1ccc(S(=O)(=O)N[C@H](CCCCN)C(=O)Nc2ccc(C(=O)c3ccccc3)cc2)cc1 [compound 20] | 2000 | 1000 |  |
| Cc1ccc(S(=O)(=O)N[C@@H](CCCCN)C(=O)N2CCC(Cc3ccccc3)CC2)cc1 [compound 21] | 300 | 150 |  |
| CCOC(=O)[C@H](NC(=O)[C@H](CCCCN)NS(=O)(=O)c1ccc(C)cc1)c1ccccc1 [compound 22] (Tos-Lys-[dPhg]-OEt) | 650 | 600 |  |
| Cc1ccc(S(=O)(=O)N[C@@H](CCCCN)C(=O)Nc2cccc(C#N)c2)cc1 [compound 29] | 480 | 340 |  |
| Cc1ccc(S(=O)(=O)N[C@@H](CCCCN)C(=O)Nc2ccc(Oc3ccccc3)cc2)cc1 [compound 31] | 780 | 150 |  |
| Cc1ccc(S(=O)(=O)N[C@@H](CCCCN)C(=O)Nc2ccc(C(F)(F)F)cc2)cc1 [compound 32] | 600 | 430 |  |
| CCOC(=O)c1ccc(NC(=O)[C@H](CCCCN)NS(=O)(=O)c2ccc(C)cc2)cc1 [compound 33] | 650 | 540 |  |
| Cc1ccc(S(=O)(=O)N[C@@H](CCCCN)C(=O)Nc2ccc(Cl)c(Cl)c2)cc1 [compound 35] | 370 | 190 |  |
| Cc1ccc(S(=O)(=O)N[C@@H](CCCCN)C(=O)Nc2ccc(C(=O)c3ccccc3)cc2)cc1 [compound 36] | 140 |  | IC50 (Plasmin [3]): 200 µM |
| CC1CCCN(C(=O)[C@H](CCCCN)NS(=O)(=O)c2cccc3c(N(C)C)cccc23)C1 (some centres unmarked) [compound 37] | 2000 | 730 |  |
| CCOC(=O)c1c(C)cc(NC(=O)[C@H](CCCCN)NS(=O)(=O)c2ccc(C)cc2)cc1C [compound 40] | 590 | 440 |  |
| Cc1ccc(S(=O)(=O)N[C@@H](CCCCN)C(=O)Nc2cc(C)nc3ccccc23)cc1 [compound 42] | 230 |  |  |
| CN(C)c1cccc2c(S(=O)(=O)N[C@@H](CCCCN)C(=O)N3CCC(Cc4ccccc4)CC3)cccc12 [compound 48] | 130 |  |  |
